This is an account of results in patent publication US12496304B2, “Selective glucocorticoid receptor modifiers for treating impaired skin wound healing” (AKRIBES BIOMEDICAL GMBH, priority 2019, dated 2025).

Series [1] has as its system primary human dermal fibroblasts (HDF). The series is described as follows: Fibroblast proliferation assay (2D) in the presence of wound exudate. Type of series: cell-based. As for the experimental part: Primary human dermal fibroblasts (HDF) were purchased from CELLnTEC, Bern. They were routinely grown in Dulbecco's modified Eagle's medium (DMEM) containing 10% FCS, 2 mM glutamine, and 100 U/ml penicillin/100 μg/ml streptomycin. Media, antibiotics, and glutamine were bought from Lonza. The cells were used at passage 5-15. Cells were trypsinized and seeded at 2500 cells/well in 30 μl into the inner wells of 384-well plates in the absence or presence of graded compound concentrations with or without different dilutions of sterile-filtered WE in medium. For control samples, 30 μl medium was added instead of specific stimuli. The outer wells were loaded with sterile water. The cells were incubated for 72 hours at 37° C.
At the end of the incubation period, supernatants were removed for the determination of IL-1β, and the cells were fixed with 4% paraformaldehyde (Morphisto) for 15 minutes at room temperature and washed 3 times with PBS. A control plate was fixed after the overnight adherence of the cells (day 1) to determine the starting cell number.
Total cellular protein was determined as a measure of cell number by staining the fixed cells with sulforhodamine B (SRB, Sigma). A 0.4% SRB solution in 1% acetic acid was added to the wells for 30 minutes. The wells were then washed with 1% acetic acid until the wash solution remained colorless. After drying, the dye was eluted with 10 mM Tris-HCl, pH8.5, and absorbance was measured either at 550 or 492 nm for lower and higher cell densities, respectively. The average absorbance of the sample representing the day 1 starting cell number was subtracted from the absorbance values of the WE-treated cells.
All experiments were carried out in triplicate for each sample and concentration, and means±standard deviation (SD) were used for the evaluation of the experiment. Results are expressed as percentage of control values for unstimulated cells.

Series [2] concerns full-thickness excisional wounds. Put plainly: Delayed wound healing in a pig model. In kind it is in vivo. The method, then: The animal experiments were approved by governmental authorities. Two young farm pigs (10-12 kg) were anesthetized and full-thickness excisional wounds were developed using a 6 mm biopsy punch. During the first 5 days after wounding, the wounds were stimulated with a) 0.05% R848 (resiquimod) and 50 μl human wound exudate, b) 0.05% R848 and human serum or c) human serum alone. R848 was applied in the mornings and exudate and serum 6 hours later, in 50 μl of solutions gelified by the addition of 2% HPMC. On days 6-10, wounds were treated once daily with mapracorat or vehicle (50% PG/47.5% H2O/0.5% Tween 80/2% HPMC). The wounds were clinically scored daily. The total wound score (maximum score=21) consisted of wound appearance (dry vs. moist), size, wound content, pus, crust, erythema intensity, erythema width, swelling and necrosis. Reported values are individual values for each of the 2 pigs.

As to `Cc1ccc2c(NC[C@](O)(CC(C)(C)c3cc(F)cc4c3OCC4)C(F)(F)F)cccc2n1` [Mapracorat], the “effect on fibroblast proliferation in the presence of >80 human wound exudates” value in series [1] (>80 human wound exudates from chronic wound patients) is more than 120%. In series [1] (WE-4 (FIG. 5), graded concentrations), the “fibroblast proliferation (2D) with wound exudate” value was “dose-dependently reversed inhibition of wound exudate (WE)-induced fibroblast proliferation”. Moreover, the total wound score entry in series [2] (10 mM and 1 mM, once daily days 6-10, WE-01, WE-02 and R848 as inducers of delayed wound healing) is reported as “reduced the wound score from days 6 to 12”. Moreover, the “healing of control wounds” value in series [2] (control wounds in the presence of human serum (FIG. 13D)) is “did not have any negative effect on the healing of control wounds”.
